Measurements taken from patent US20040220085A1, “Compositions for nucleic acid delivery” (priority 2003, published 2004).

Key:
Format in all cases: cell-based, human
JJ5 breast cancer cells [1] = assay: Growth inhibition assay against JJ5 breast cancer cells; conditions: 4 days culture
Experimental: JJ5 breast cancer cells (prepared from BCBM JJ5) expressing approximately 10^6 epidermal growth factor receptors/cell were incubated with EGF-^111In-labeled transferrin composition, unlabeled hEGF or ^111In-oxine, centrifuged to remove free ligand, then assayed and seeded (10^6 cells/dish) into 35 mm culture dishes. Growth medium was added and the cells were cultured at 37° C./5% CO^2 for 4 days. The cells were then recovered by trypsinization and counted in a hemocytometer. Control dishes contained cells cultured in growth medium containing ^111In-DTPA or growth medium alone.

JJ5 breast cancer cells [2] = assay: Cytotoxicity (colony-forming) assay against JJ5 breast cancer cells; conditions: 14 days
Experimental: JJ5 breast cancer cells were incubated with increasing amounts EGF-^111In-labeled transferrin composition or ^111In-oxine, centrifuged to remove free ligand, assayed and then seeded into 50 mm culture dishes. The number of cells seeded was varied from 3×10^4 to 3×10^6cells to obtain approximately 400 viable colonies/dish taking into account the plating efficiency and the expected level of cytotoxicity. Control dishes contained JJ5 breast cancer cells which were incubated with normal saline. Growth medium was added and the cells were cultured at 37° C./5% CO^2 for 14 days. The growth medium was removed and the colonies were stained with methylene blue (1% in a 1:1 mixture of ethanol and water) then washed twice. The number of colonies per dish was counted using a manual colony counter (Manostat Corp). The plating efficiency was calculated by dividing the number of colonies observed by the number of cells seeded in each dish. The surviving fraction at increasing amounts of EGF-^111In-labeled transferrin composition or ^111In-oxine was calculated by dividing the plating efficiency for dishes containing treated cells with that observed for control dishes with normal saline.

[3] = tested on: JJ5 Breast Cancer cells (EGFR); assay: Binding of EGF-111In-labeled transferrin composition to JJ5 breast cancer cells
Experimental: For the normal breast cell line HBL-100, 8000 EGFR/cell has been reported. The expression of EGFR in breast cancer cell lines has a reported range of 800 EGFR/cell for MCF-7 cells to 10^6 EGFR/cell for MDA-MB-468 cells. […] Utilizing the Auger electron emitter ^111In was used in the initial experiments to illustrate the utility of the invention using EGF-^111In-labeled transferrin compositions. The EGF-^111In-labeled transferrin (0.25-80 ng) was incubated with 1.5×10^6 cells/dish JJ5 Breast Cancer (prepared from BCBM JJ5) cells in 1 mL of 0.1% human serum albumin in 35 mm multiwell culture dishes at 37° C. for 30 minutes. The cells were transferred to a centrifuge tube and centrifuged. The cell pellet was separated from the supernatant and counted in a g-scintillation counter to determine bound (B) and free (F) radioactivity. Non-specific binding was determined by conducting the assay in 100 nM hEGF. The kinetics of binding was determined by incubating 1 ng of EGF-^111In-labeled transferrin composition with 3×10^6 JJ5 Breast Cancer cells at 37° C. and determining the proportion of radioactivity bound to the cells at various times up to 24 hours. Internalized fraction was measured by determining the proportion of radioactivity which could not be displaced from the cell surface by 100 nM hEGF. Cell-associated binding (surface-binding and intracellular accumulation) was expressed as a percentage of medium radioactivity bound per mg of cell study protein.

Row | Compound | growth inhibition of the JJ5 cells (JJ5 breast cancer cells [1]; 3.5 pCi/cell) | cell killing (JJ5 breast cancer cells [2]; <6 pCi/cell) | internalization by cancer cells ([3]; JJ5 cells) | number of binding sites ([3]; JJ5 cells) | kinetics of binding to the breast cancer cells ([3]; JJ5 cells, 37° C.) | time retained by the breast cancer cells ([3]; JJ5 cells, 37° C.) | affinity constant for binding to JJ5 cells ([3]; JJ5 cells, 37° C., 30 minutes) | 111In radioactivity lost from the cells in vitro ([3]; over a 24 hour period at 37° C.) | growth inhibition of the JJ5 cells compared to the medium control (JJ5 breast cancer cells [1]; 3.4 pCi/cell) | reduction in cell survival for JJ5 cells (JJ5 breast cancer cells [2]; 8 pCi/cell)
1 | [In+3].[O-]c1cccc2cccnc12.[O-]c1cccc2cccnc12.[O-]c1cccc2cccnc12 [^111In-oxine, reference compound] | 91% | greater than 99% |  |  |  |  |  |  |  | 
2 | EGF-^111In-labeled transferrin composition: human EGF linked to transferrin radiolabeled with the Auger electron emitter 111In at the iron-binding sites |  |  | rapidly internalized | 2.7×10^6 | rapidly bound | at least 24 hours | 8e+08 L/mol | < 8% | 83% | 99%
